Results: PMC4109918, “Design, Synthesis and Pharmacological Evaluation of Novel Vanadium-Containing Complexes as Antidiabetic Agents” (PLoS ONE, 2014)
Like-named read-outs stand apart in the source and are kept apart here.

What was measured:
FFAs = details: hypoglycemic activity, File S1, cited from earlier work
[1] = test system: adrenaline hyperglycemia in mongrel white mice; test: In vivo hypoglycemic activity in the adrenaline hyperglycemia model; details: oral, 1/10 of the LD50, 1 hour prior to epinephrine hydrochloride 1 mg/kg s.c.
Method: Determination of hypoglycemic activity of 5 complexes was performed on 75 mice. Adrenaline hyperglycemia was caused by subcutaneous administration of 0.1% epinephrine hydrochloride (AGH) at a dose of 1 mg/kg. […] In each experimental group there were 3 animals and 3 replicates were performed. The content of glucose in whole blood was determined at 0.5, 1 and 2 hours after administration of AGH or glucose using portable glucose monitoring systems, OneTouch Ultra test strip and OneTouch Ultra and Clever check TD4209 and strips Clever check TD4209.

[2] = test system: free fatty acids released in adipocytes; test: Insulin-mimetic action: inhibition of free fatty acid release from epinephrine-stimulated adipocytes; assay type: cell-based; details: rat adipocytes, 30 min with compound at 37°C, then 3 hours with epinephrine; 50% inhibition of FFA release; read-out: IC50 exp (±S.D.) (FFAs)
Method: All rats (250–300 g) and mice (22–25 g) were housed in a temperature controlled room (24°C±1°C) and they had received standard food pellets and tap water […]. At the end of the study (24 h after CIN induction), all animal test subjects were euthanized by inhalation of ether anesthesia. Rat adipocytes were prepared from the fat pads of male Wistar rats by collagenase digestion according to the method of Rodbell. Freshly prepared adipocytes were incubated (37°C, 30 min) with solutions of the vanadium compounds at three concentrations (0.1, 0.5 and 1 mM in isotonic saline and 5 mM glucose), followed by 3 hours of incubation with epinephrine. The inhibitory effect was determined in terms of the decrease of the amount free fatty acids released in adipocytes. All assays were performed in duplicate or triplicate. […] Investigations were carried out on mongrel white mice.

rat = test: Acute toxicity study, rapid method of Prozorovskii (LD50); assay type: in vivo; parameters: LD50exp: unit not given here; details: for LD50exp: range in brackets; for Class in AD (experimental toxicity class): rat, in vivo
Method: Acute toxicity studies were carried out by rapid method of Prozorovskii. […] The following criteria were used for the evaluation of acute toxicity: the number of dead animals, the timing of their death, LD50 through the night, the picture of intoxication, behavioral change and autopsy results of the survived animals after 14 days. Clinical examination was performed for each animal during the first hour after administration of the substance, and weekly thereafter. Clinical examination included a detailed inspection of the animal in cage, in hands and in the open area. The manifestation and severity of intoxication were noted. Examination of animals in order to identify mortality or signs of variations in health status was conducted on a daily basis. Integrated indicators were assessed weekly during the entire period of observation. Death of animals was recorded daily during entire study period. General condition and behavior of animals as well as type of toxic manifestations, including their development and termination were recorded daily during the procedures for monitoring and inspection of individual animals.

[3] = parameters: method as in PMID 12888267; details: cited from earlier work

O=S(=O)(O)[O][V+4]123(=[O])[O]c4ccccc4C[N+]1(Cc1cccc[n+]12)Cc1cccc[n+]13 (stereo not drawn) [[VIVO(bp-O)HSO4]]
IC50 (FFAs; ref 9 (Nilsson et al. 2009)): 3850 µM

Cc1ccc[n+]2c1C(=O)[O][V+4]21(=[O])[O]C(=O)c2c(C)ccc[n+]21 [VO(3mpa)2]
IC50 (FFAs; ref 3 (Sakurai et al. 2000)): 660 µM

O=C(N[C@H](Cc1c[nH]c2ccccc12)C(=O)O)c1ccc2[n+](c1)[V+4]1(=[O])([O]C2=O)[n+]2ccccc2C[N+]1(Cc1ccccn1)Cc1ccccn1 [[VVO(pic-trpH)tpa]2+]
IC50 (FFAs; ref 9 (Nilsson et al. 2009)): 1840 µM

CCc1cccc2[n+]1[V+4]1(=[O])([O]C2=O)[O]C(=O)c2cccc(CC)[n+]21 [VO(6epa)2]
IC50 (FFAs; ref 4 (Sasagawa et al. 2002)): 810 µM

O=S(=O)([O-])[O-].[O]=[V+2].c1ccc(CN(Cc2ccccn2)Cc2ccccn2)nc1 [[VIVO(tpa)SO4]]
IC50 (FFAs; ref 9 (Nilsson et al. 2009)): 4600 µM

[O]=[V+4]12([O][n+]3ccccc3[S]1)[O][n+]1ccccc1[S]2 [VO(opt)2]
IC50 (FFAs; ref 6 (Sakurai et al. 1999)): 190 µM

Cc1occc(=O)c1[O][Zn+2][O]c1c(C)occc1=O [Zn(maltolat)2]
IC50 (FFAs; ref 7 (Yoshikawa et al. 2002)): 590 µM

CC(C)(C)OC(=O)[N-]C(=N)N.CC(C)(C)OC(=O)[N-]C(=N)N.[O]=[V+2] [Complex III, Bis{tert-butyl[amino(imino)methyl]carbamato} oxovanadium (IV)]
decreasing blood glucose level [1]: 42%
IC50 [2]: 540 ± 70 µM
LD50exp (rat): 190(170–210)
Class in AD (experimental toxicity class) (rat): 3

CCC1=C2[O][V+4]3(=[O])([O]C4=C(CC)OC=C[C@@H]4[O]3)[O][C@H]2C=CO1 [bis(ethylmaltolato)oxovanadium(IV)]
IC50 (FFAs; ref 5 (Sakurai et al. 2010)): 632 µM

CCCCCC1=C2[O][V+4]3(=[O])([O]C4=C(CCCCC)OC(C)=C(OC)C4=[O+]3)[O+]=C2C(OC)=C(C)O1 [VO(alx)2]
IC50 (FFAs; ref 5 (Sakurai et al. 2010)): 553 µM

O=S1(=O)[O][Zn+2][O]1 [ZnSO4]
IC50 (FFAs; ref 8 (Yoshikawa et al. 2001)): 810 µM

CC(C)[C@H](C=O)[NH][Zn+2][NH][C@H](C=O)C(C)C [Zn(L-Val)2]
IC50 (FFAs; ref 8 (Yoshikawa et al. 2001)): 770 µM

COC(=O)[C@@H](Cc1c[nH]c2ccccc12)NC(=O)c1ccc2[n+](c1)[V+4]1(=[O])([O]C2=O)[O]C(=O)c2ccc(C(=O)N[C@H](Cc3c[nH]c4ccccc34)C(=O)OC)c[n+]21 [[VIVO(pic-trpMe)2]]
IC50 (FFAs; ref 9 (Nilsson et al. 2009)): 410 µM

O=C1[O][V+4]2(=[O])([O]C(=O)c3cc(Cl)cc[n+]32)[n+]2ccc(Cl)cc21 [VO(4clpa)2]
IC50 (FFAs; ref 3 (Sakurai et al. 2000)): 700 µM

Cc1occc(=O)c1[O-].Cc1occc(=O)c1[O-].[O]=[V+2] [BMOV, bis(maltolato)oxovanadium(IV)]
LD50 [3]: 220 mg/kg
IC50 (FFAs; ref 5 (Sakurai et al. 2010)): 676 µM

O=S(=O)([O-])[O-].[O]=[V+2] [VOSO4, Vanadyl sulfate]
decreasing blood glucose level [1]: 16%
IC50 (FFAs; ref 1 (Sakurai, Yasui 2003)): 840 µM
IC50 [2]: 1000 ± 90 µM
LD50exp (rat): 448(356–540)
Class in AD (experimental toxicity class) (rat): 3

O=C1[O][V+4]2(=[O])([O]C(=O)c3cccc[n+]32)[n+]2ccccc21 [VO(pic)2]
IC50 (FFAs; ref 3 (Sakurai et al. 2000)): 590 µM

O=C[C@@H]1CC(=O)[NH][Zn@@+2]2([NH]C(=O)C[C@H](C=O)[NH]2)[NH]1 [Zn(L-Asn)2]
IC50 (FFAs; ref 8 (Yoshikawa et al. 2001)): 650 µM

O=C1[O][V+4]2(=[O])([O]C(=O)c3ccc(I)c[n+]32)[n+]2cc(I)ccc21 [VO(5ipa)2]
IC50 (FFAs; ref 3 (Sakurai et al. 2000)): 450 µM

Cc1cccc2[n+]1[V+4]1(=[O])([O]C2=O)[O]C(=O)c2cccc(C)[n+]21 [VO(6mpa)2]
IC50 (FFAs; ref 3 (Sakurai et al. 2000)): 490 µM

O=C1[O][V+4]2(=[O])([O]C(=O)c3c(O)ccc[n+]32)[n+]2cccc(O)c21 [VO(3hpa)2]
IC50 (FFAs; ref 1 (Sakurai, Yasui 2003)): 470 µM

C[C@@H](O)[C@H]1[NH][Zn+2]2([NH][C@H]([C@@H](C)O)C(=O)[O]2)[O]C1=O [Zn(L-Thr)2]
IC50 (FFAs; ref 8 (Yoshikawa et al. 2001)): 540 µM

O=C1[O][V+4]2(=[O])([O]C(=O)c3cccc(O)[n+]32)[n+]2c(O)cccc21 [VO(6hpa)2]
IC50 (FFAs; ref 1 (Sakurai, Yasui 2003)): 800 µM

Cc1cccc2[n+]1[Zn+2]1([O]C2=O)[O]C(=O)c2cccc(C)[n+]21 [Zn(6mpa)2]
IC50 (FFAs; ref 7 (Yoshikawa et al. 2002)): 310 µM

O=C1[O][Zn+2]2([O]C(=O)c3cccc[n+]32)[n+]2ccccc21 [Zn(pic)2]
IC50 (FFAs; ref 7 (Yoshikawa et al. 2002)): 640 µM

(S)-[2-(N-salicylidene) amino-propionate] oxovanadium(IV) monohydrate [Complex V]
decreasing blood glucose level [1]: 26%
IC50 [2]: 810 ± 60 µM
LD50exp (rat): 245(210–280)
Class in AD (experimental toxicity class) (rat): 3

CC(=O)/C=C(/C)[O-].CC(=O)/C=C(/C)[O-].[O]=[V+2] [Complex II, Bis(acetylacetonato)oxo-vanadium(IV)]
IC50 [2]: 950 ± 90 µM

O=C([O-])C([O-])C([O-])C(=O)[O-].O=C([O-])C([O-])C([O-])C(=O)[O-].[K+].[K+].[K+].[K+].[O]=[V+2].[O]=[V+2] (stereo not drawn) [Complex IV, Potassium bis((m2-d,d-tartrato-O,O′,O′′,O′′′)-oxo-vanadium(IV)) dihydrate]
IC50 [2]: 950 ± 100 µM

O.O.O.O.O.O.O.O.[Na+].[O]=[V-]12([O][O]1)[O][O]2.c1ccc(-c2ccccn2)nc1 [Complex I, Sodium(2,2′-Bipyridyl) oxo-diperoxovanadate(V) octahydrate]
decreasing blood glucose level [1]: 50%
IC50 [2]: 720 ± 90 µM
LD50exp (rat): 108(95–122)
Class in AD (experimental toxicity class) (rat): 3

[O]=[V+4]12([O]C3=COC=C[C@@H]3[O]1)[O]C1=COC=C[C@H]1[O]2 [bis(3-hydroxy-4-pyronato)oxovanadium(IV)]
IC50 (FFAs; ref 2 (Sakurai et al. 2008)): 1180 µM

O=C[C@H]1CCC[N]1[Zn+2][N]1CCC[C@@H]1C=O [Zn(L-Pro)2]
IC50 (FFAs; ref 8 (Yoshikawa et al. 2001)): 890 µM
